Measurements reported in patent US20230174484A1, “ANTAGONISTS OF GPR39 PROTEIN” (Oregon Health & Science University, priority 2020, published 2023).

Molecular target: T1, human GPR39 receptor (Homo sapiens, UniProt O43194)
T1 construct: PC3 Cells, Expressing the Endogenous Human GPR39 Receptor; endogenous in cells; host or cells: PC3 (human prostate adenocarcinoma) cells
T1 sequence (O43194 1-453): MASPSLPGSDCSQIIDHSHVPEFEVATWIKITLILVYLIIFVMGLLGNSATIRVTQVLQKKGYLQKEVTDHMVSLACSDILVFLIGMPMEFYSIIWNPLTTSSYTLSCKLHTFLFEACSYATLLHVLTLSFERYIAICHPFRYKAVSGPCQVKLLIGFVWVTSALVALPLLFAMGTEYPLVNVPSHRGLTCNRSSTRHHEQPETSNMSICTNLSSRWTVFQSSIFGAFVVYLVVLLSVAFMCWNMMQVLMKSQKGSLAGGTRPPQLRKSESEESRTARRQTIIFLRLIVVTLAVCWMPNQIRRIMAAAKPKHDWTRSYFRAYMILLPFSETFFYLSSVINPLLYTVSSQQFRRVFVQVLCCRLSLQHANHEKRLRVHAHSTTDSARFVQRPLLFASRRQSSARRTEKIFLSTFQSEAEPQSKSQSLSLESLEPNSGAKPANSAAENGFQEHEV
Experiment: Measurement of intracellular calcium response in PC3 cells (FLIPR), antagonism of the C3 agonist response
Format: cell-based
Conditions: functional pKi (modified Cheng-Prusoff), inhibition of the C3 (TC-G 1008) response at EC90, 30 μM ZnCl2, read-out: fpKi activity
Description: Human prostate adenocarcinoma (PC3) cells endogenously expressing human GPR39 receptor were seeded into black walls clear-base 384-well plates at a density of 7,500 cells per well in DM EM (Low Glucose) supplemented with 10% heat-inactivated foetal bovine serum and 1% of Pen/Strep and grown overnight at 37° C., 5% CO2. After washing with assay buffer (20 mM HEPES, 137 mM NaCI, 5.4 mM KCI, 10 mM glucose, 0.8 mM MgSO4, 1.3 mM CaCl2, 0.3 mM Na2HPO4, 0.4 mM KH2PO4 4.2 mM NaHCO3, pH 7.4), cells were incubated with Calcium-6 probe (Molecular Devices) at 37° C. for 2h and then equilibrated at RT for 30 minutes on metal block. The fluorescence was measured in real time by Fluorometric Imaging Plate Reader (FLIPR TETRA, Molecular Devices) (excitation wavelength at 470-495 nm, emission wavelength at 515-575 nm).
Compounds of invention were serially diluted in neat DMSO at 1000 fold concentrations and plated into 384-well plates and then 200-fold diluted in assay buffer containing 150 uM ZnCl2 (30 μM final concentration) and […].
Fluorescence was monitored throughout the run assay. The peak of Ca2+stimulation (baseline subtracted) was expressed as percentage of the maximal inhibition of the EC90 C3 response and was plotted versus the concentration of test compound. Curve fitting and IC50 estimations are carried out using a four-parameter logistic model using XLfit Software.
The potency of compounds was reported as functional pKi (—Log10Ki) obtained using the modified Cheng-Prusoff relationship (Cheng, Y., Prusoff, W. H. 1973.)
fKi =IC50/(1+[L]/EC50) where IC50 is the concentration of antagonist required for 50% inhibition of the maximum response, [L] is the concentration of the agonist used (EC90) and EC50 is the concentration of agonist need to induced 50% of the maximum response (obtained in each experimental plate).
An fpKi less than 5.2 is reported as “+/±”. An fpKi ranging from 5.2 to 5.9 is reported as “+”. An fpKi from 6.0 to 6.5 is reported as “++”. An fpKi from 6.6 to 7.2 is reported as “+++”. An fpKi equal to or greater than 7.3 is reported as “++++”.

Row | SMILES | Ki [µM]
1 | O=C(Nc1ccc(C(=O)N2CCN(c3ccccn3)CC2)c(N2CCCCCC2)c1)C1CC1 [Example 46, N-(3-(azepan-1-yl)-4-(4-(pyridin-2-yl)piperazine-1-carbonyl)phenyl) Cyclopropanecarboxamide] | 0.316 to 1
2 | O=C(Nc1ccc(C(=O)N2CCOC(C(F)(F)F)C2)c(N2CCCC2)c1)C1CC1 (centres unmarked) [Example 166, N-[3-pyrrolidin-1-yl-4-[2-(trifluoromethyl)morpholine-4-carbonyl]phenyl]cyclopropanecarboxamide] | 1.26 to 6.31
3 | CN1CCN(C(=O)c2ccc(NC(=O)C3CC3)cc2N2CCCC2)C(c2ccncc2Cl)C1 (racemic) [Example 174, N-[4-[2-(3-chloropyridin-4-yl)-4-methylpiperazine-1-carbonyl]-3-pyrrolidin-1-ylphenyl]cyclopropanecarboxamide] | 0.0631 to 0.251
4 | O=C(Nc1ccc(C(=O)N2CCN(Cc3ncco3)CC2)c(N2CCCCCC2)c1)C1CC1 [Example 24, N-(3-(azepan-1-yl)-4-(4-(oxazol-2-ylmethyl)piperazine-1-carbonyl)phenyl) cyclopropanecarboxamide] | 0.0631 to 0.251
5 | CCCN1CCN(C(=O)c2ccc(NC(=O)C3CC3)nc2N2CCCCCC2)CC1 [Example 108] | 0.0631 to 0.251
6 | CCCN1CCN(C(=O)c2ccc(NC(=O)C3CC3)cc2N2CCC(C)(C)CC2)CC1 [Example 17, N-(3-(4,4-dimethylpiperidin-1-yl)-4-(4-propylpiperazine-1-carbonyl)phenyl)cyclopropanecarboxamide] | 0.0631 to 0.251
7 | O=C(Nc1ccc(C(=O)N2CCS(=O)(=O)CC2)c(N2CC3CC(C3)C2)c1)C1CC1 [Example 195, N-[3-(3-azabicyclo[3.1.1]heptan-3-yl)-4-(1,1-dioxo-1,4-thiazinane-4-carbonyl)phenyl]cyclopropanecarboxamide] | 0.0631 to 0.251
8 | CC1CCN(c2cc(NC(=O)C3CC3)ccc2C(=O)N2CCC(C(F)(F)F)CC2)C1 (single isomer, unassigned) [Example 63a, (N-[3-(3R or 3S-methylpyrrolidin-l-yl)-4-[4-(trifluoromethyl)piperidine-1-carbonyl]phenyl]cyclopropanecarboxamide] | ≤ 0.0501
9 | CN1CCN(C(=O)c2ccc(NC(=O)C3CC3)nc2N2CCCCC2)C(c2ccccc2)C1 (racemic) [Example 147, N-[5-(4-methyl-2-phenylpiperazine-1-carbonyl)-6-piperidin-1-ylpyridin-2-yl]cyclopropanecarboxamide] | 0.0631 to 0.251
10 | O=C(NCc1ccccc1)c1ccc(NC(=O)C2CC2)cc1N1CCCCCC1 [Example 43, 2-(azepan-1-yl)-N-benzyl-4-cyclopropaneamidobenzamide] | 0.316 to 1
11 | O=C(Nc1ccc(C(=O)N2CCC(C(F)(F)F)CC2)c(N2CCCCCC2)c1)C1CC1 [Example 38, N-(3-(azepan-1-yl)-4-(4-(trifluoromethyl)piperidine-1-carbonyl)phenyl) cyclopropanecarboxamide] | 0.0631 to 0.251
12 | CCCN1CCN(C(=O)c2ccc(NC(=O)C3CC3)cc2N2CCc3ccccc3C2)CC1 [Example 18, N-(3-(3,4-dihydroisoquinolin-2(1H)-yl)-4-(4-propylpiperazine-1-carbonyl)phenyl)cyclopropane carboxamide] | 0.316 to 1
13 | CN1CCN(C(=O)c2ccc(NC(=O)C3CC3)cc2N2CCC3(COC3)C2)C(c2ccccc2)C1 (centres unmarked) [Example 203, N-[4-(4-methyl-2-phenylpiperazine-1-carbonyl)-3-(2-oxa-7-azaspiro[3.4]octan-7-yl)phenyl]cyclopropanecarboxamide] | 0.316 to 1
14 | CCCN1CCN(C(=O)c2ccc(NC(=O)CC)cc2N2CCCCCC2)CC1 [Example 94, N-(3-(azepan-1-yl)-4-(4-propylpiperazine-1-carbonyl)phenyl)propionamide] | 0.316 to 1
15 | CC1CN(C)CCN1C(=O)c1ccc(NC(=O)C2CC2)cc1N1CCCCCC1 (centres unmarked) [Example 37, N-[3-(azepan-1-yl)-4-(2,4-dimethylpiperazine-1-carbonyl)phenyl]cyclopropanecarboxamide] | 0.316 to 1
16 | CC(C)C1CN(C)CCN1C(=O)c1ccc(NC(=O)C2CC2)cc1N1CCCCCC1 (centres unmarked) [Example 79, N-[3-(azepan-1-yl)-4-(4-methyl-2-propan-2-ylpiperazine-1-carbonyl)phenyl]Cyclopropanecarboxamide] | 1.26 to 6.31
17 | Cc1cc(C(F)(F)F)nn1-c1cc(NC(=O)C2CC2)ccc1C(=O)N1CCS(=O)(=O)CC1 [Example 178, N-[4-(1,1-dioxo-1,4-thiazinane-4-carbonyl)-3-[5-methyl-3-(trifluoromethyl)pyrazol-1-yl]phenyl]cyclopropanecarboxamide] | 0.0631 to 0.251
18 | O=C(Nc1ccc(C(=O)N2CCS(=O)(=O)CC2)c(N2CCC3(CCC3)C2)n1)C1CC1 [Example 143, N-[6-(6-azaspiro[3.4]octan-6-yl)-5-(1,1-dioxo-1,4-thiazinane-4-carbonyl)pyridin-2-yl]cyclopropanecarboxamide] | ≤ 0.0501

Second part, the compound after the results:

Row | Ki [µM] | SMILES
19 | 0.316 to 1 | CN1CCN(C(=O)c2ccc(NC(=O)C3CC3)cc2N2CCC(C(F)(F)F)C2)C(c2ccccc2)C1 (single isomer, unassigned) [Example 199d, (2S, 3R) or (2R, 3S) or (2R, 3R) or (2S, 3S) N-[4-(4-methyl-2-phenylpiperazine-1-carbonyl)-3-[3-(trifluoromethyl)pyrrolidin-1-yl]phenyl]cyclopropanecarboxamide]
20 | 1.26 to 6.31 | CN1CCN(C(=O)c2ccc(NC(=O)C3CC3)nc2N2CCCC2)C(c2ccccc2)C1 (single isomer, unassigned) [Example 149b, (2R or 2S) N-[5-(4-methyl-2-phenylpiperazine-1-carbonyl)-6-pyrrolidin-1-ylpyridin-2-yl] cyclopropanecarboxamide]
21 | 0.0631 to 0.251 | C[C@@H]1C[C@H](C)CN(c2cc(NC(=O)C3CC3)ccc2-c2nnc(Sc3ccccc3)n2C)C1 [Example 114b, N-[3-(3,5-dimethylpiperidin-1-yl)-4-(4-methyl-5-phenylsulfanyl-1,2,4-triazol-3-yl)phenyl]cyclopropanecarboxamide]
22 | 0.0631 to 0.251 | C[C@@H]1C[C@@H](C)CN(c2cc(NC(=O)C3CC3)ccc2-c2nnc(Sc3ccccc3)n2C)C1 (relative stereo) [Example 114a, N-[3-(3,5-dimethylpiperidin-1-yl)-4-(4-methyl-5-phenylsulfanyl-1,2,4-triazol-3-yl)phenyl]cyclopropanecarboxamide]
23 | 0.0631 to 0.251 | CN1CCN(C(=O)c2ccc(NC(=O)C3CC3)nc2N2CCC(F)(F)C2)C(c2ccccc2)C1 (racemic) [Example 148c, N-[6-(3,3-difluoropyrrolidin-1-yl)-5-(4-methyl-2-phenylpiperazine-1-carbonyl)pyridin-2-yl]cyclopropanecarboxamide]
24 | 0.0631 to 0.251 | CN1CCN(C(=O)c2ccc(NC(=O)C3CC3)nc2N2CCCC2)C(c2ccccc2)C1 (racemic) [Example 149c, N-[45-(4-methyl-2-phenylpiperazine-1-carbonyl)-6-pyrrolidin-1-ylpyridin-2-yl]cyclopropanecarboxamide]
25 | 0.0631 to 0.251 | O=C(Nc1ccc(C(=O)N2CCC3(CC2)COC3)c(N2CCC(C(F)(F)F)C2)c1)C1CC1 (racemic) [Example 213c, N-[4-(2-oxa-7-azaspiro[3.5]nonane-7-carbonyl)-3-[3-(trifluoromethyl)pyrrolidin-1-yl]phenyl]cyclopropanecarboxamide]
26 | 0.316 to 1 | Cc1nnc(-c2ccc(C(=O)N3CCN(C)CC3c3ccccc3)c(N3CCC(C(F)(F)F)C3)c2)[nH]1 (single isomer, unassigned) [Example 177d, (2S, 3R) or (2R, 3S) or (2R, 3R) or (2S, 3S) (4-methyl-2-phenylpiperazin-1-yl)-[4-(5-methyl-4H-1,2,4-triazol-3-yl)-2-[3-(trifluoromethyl)pyrrolidin-1-yl]phenyl]methanone]
